Values of other authors, collected in publication PMC3714282, “Pharmacometabolomics of Response to Sertraline and to Placebo in Major Depressive Disorder – Possible Role for Methoxyindole Pathway” (PLoS ONE, 2013).

System: arylalkylamine N-acetyltransferase (AANAT) mRNA
Parameters: method as in PMID 9951564
Conditions: animal studies, chronic administration; cited from earlier work

Compound: CNCCC(Oc1ccc(C(F)(F)F)cc1)c1ccccc1 (stereo not shown) [fluoxetine]
- brain arylalkylamine N-acetyltransferase (AANAT) mRNA: several-fold increase
